Experimental data from ChEMBL document CHEMBL1201862, “PubChem BioAssay data set” (2004).
Activity calls are given as the source filed them.

Key:
[1] = target: FAD-linked sulfhydryl oxidase ALR (Homo sapiens, UniProt P55789); experiment: inhibitors of human ALR sulfhydryl oxidase, dose response, biochemical, H2O2 detection, luminescence, cherry-pick (AID 493248)
[2] = cytotoxicity toward DRD oncogenic fibroblasts, dose response, cell-based, non-viral oncogenic, luminescence (AID 1934); assay type: functional; details: Homo sapiens
BJ [3] = experiment: cytotoxicity toward BJ-TERT-LT-ST fibroblasts, dose response, cell-based, RAS-independent, luminescence (AID 1935); assay type: functional; details: Homo sapiens;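 also: BJ fibroblasts immortalized with TERT plus LT and ST oncogenes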
BJ [4] = experiment: cytotoxicity toward BJ-TERT fibroblasts, dose response, cell-based, RAS-independent, luminescence (AID 1933); assay type: functional; details: Homo sapiens
BJ [5] = experiment: cells; assay type: functional, cell-based; details: Homo sapiens
[6] = Luminescence Cell-Based Dose Confirmation HTS to Identify Activators of 5'UTR Stem-Loop Driven Alpha-Synuclein mRNA Translation in H4 Neuroglioblastoma Cells. [Related pubchem assays: 1829 (Project Summary), 1814 (Primary HTS)]; assay type: functional
[7] = Luminescence Cell-Based Dose Response HTS to Identify Activators of Luciferase Translation or Activity in H4 […] Cells. [Related pubchem assays: 1829 (Project Summary), 1814 (Primary HTS)]; assay type: functional
H4 = experiment: Luminescence Cell-Based Dose Response HTS to Identify Activators of 5'UTR Stem-Loop Driven Prion Protein mRNA Translation in H4 Neuroglioblastoma Cells. [Related pubchem assays: 1829 (Project Summary), 1814 (Primary HTS)]; assay type: functional; details: Homo sapiens
H9c2 = experiment: cells; assay type: functional, cell-based; details: Rattus norvegicus, H9c2, Myocardium;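 also: confirmatory concentration-response retest of ultra-high-throughput screening hits for modulation of myocardial damage; cell death induced by hydrogen peroxide oxidative stress; compound pretreatment for 60 min then peroxide exposure for 2 h; potency is for protecting the cells against peroxide damage rather than for killing them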
Cytochrome P450 2D6 = Cytochrome P450 2D6 (Homo sapiens, UniProt P10635);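 also: CYP2D6 member of a cytochrome P450 panel assay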
[8] = cytotoxicity toward NIH3T3 fibroblasts, dose response, counter-screen, cell-based, ATP luminescence, mouse fibroblasts (AID 2010); assay type: functional;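 also: cells exposed to compound for about 90 hours before reading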
[9] = inhibitors of intracellular T. cruzi replication, confirmation, NIH3T3 host cells, beta-gal luminescence (AID 2044); assay type: functional, cell-based;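 also: intracellular parasites grown in NIH/3T3 mouse fibroblasts as host cells; luminescent beta-galactosidase reporter signal from transgenic T. cruzi replicating inside host cells; inhibitors lower the luminescence signal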
[10] = target: T1, Corticotropin-releasing factor receptor 2/Corticotropin-releasing factor-binding protein (Homo sapiens, UniProt P24387+Q13324); experiment: activators of CRF receptor 2 with binding protein – uHTS hits, confirmation (AID 602473); assay type: functional; details: read-out: EC50_Mean
T1 sequence (Q13324 whole entry): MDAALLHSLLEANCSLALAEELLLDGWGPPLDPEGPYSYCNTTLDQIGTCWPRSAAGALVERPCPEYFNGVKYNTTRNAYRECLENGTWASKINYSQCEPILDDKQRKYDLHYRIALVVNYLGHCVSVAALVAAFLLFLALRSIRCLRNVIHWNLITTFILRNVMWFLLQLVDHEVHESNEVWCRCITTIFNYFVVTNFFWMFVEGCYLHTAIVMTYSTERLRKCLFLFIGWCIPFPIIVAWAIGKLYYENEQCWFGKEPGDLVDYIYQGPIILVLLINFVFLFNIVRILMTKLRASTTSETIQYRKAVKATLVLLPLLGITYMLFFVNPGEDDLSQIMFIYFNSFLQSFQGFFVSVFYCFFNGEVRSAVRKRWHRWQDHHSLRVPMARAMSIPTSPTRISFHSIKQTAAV
T1 sequence (P24387 whole entry): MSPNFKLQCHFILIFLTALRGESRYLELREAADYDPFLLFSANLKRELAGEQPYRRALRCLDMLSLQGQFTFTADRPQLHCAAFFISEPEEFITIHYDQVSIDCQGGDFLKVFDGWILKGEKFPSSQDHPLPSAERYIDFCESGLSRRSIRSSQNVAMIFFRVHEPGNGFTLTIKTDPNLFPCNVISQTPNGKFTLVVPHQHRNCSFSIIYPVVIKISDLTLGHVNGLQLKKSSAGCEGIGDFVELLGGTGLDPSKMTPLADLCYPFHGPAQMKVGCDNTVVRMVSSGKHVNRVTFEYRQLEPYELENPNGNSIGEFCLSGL

[11] = target: T1, Corticotropin-releasing factor receptor 2/Corticotropin-releasing factor-binding protein; experiment: Dose Response confirmation of uHTS hits for small molecule antagonists of the CRF-binding protein and CRF-R2 receptor complex.; assay type: functional; details: read-out: IC50_Mean
INS1 = experiment: beta cell apoptosis inhibitors, cytokine rescue, dose response, luminescence, retest (AID 449756); assay type: functional, cell-based; details: Rattus norvegicus;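 also: cell death triggered by IL-1 beta plus TNF-alpha plus IFN-gamma mixture; protective hits raise ATP signal compared with cytokine alone wells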
Streptococcus = experiment: Group A Streptococcus viability loss, dose response, counter-screen for streptokinase expression inhibitor project, luminescence, BacTiterGlo (AID 1915); assay type: functional, organism-based;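 also: potency for reduction of bacterial viability or growth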
Paired box protein Pax-8 = Paired box protein Pax-8 (Homo sapiens, UniProt Q06710); experiment: inhibitors of PAX8-driven TPO luciferase reporter, dose response, RMG-I cells, cherry-pick (AID 687027); assay type: functional, cell-based;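 also: luciferase reporter driven by Pax8 target thyroperoxidase promoter measured by SteadyGlo luminescence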
[12] = system: Streptococcus sp. 'group A'; experiment: growth inhibition of control SK(-) GAS strain, dose response, counter-screen for streptokinase expression inhibitor project, luminescence, kanamycin, BacTiterGlo, confirmation (AID 1900); assay type: functional, organism-based
[13] = Luminescence Cell-Based Dose Retest to Confirm Inhibitors of Cancer Stem Cells. [Related pubchem assays (depositor defined):AID2717, AID2721]; assay type: functional; details: Homo sapiens
Cytochrome P450 2C19 = Cytochrome P450 2C19 (Homo sapiens, UniProt P33261); experiment: Cytochrome panel assay with activity outcomes. Panel member name: p450-cyp2c19 Compounds with AC50 equal or less than 10 uM are considered active; assay type: functional; details: read-out: AC50
Cytochrome P450 2C19, sequence (P33261 whole entry): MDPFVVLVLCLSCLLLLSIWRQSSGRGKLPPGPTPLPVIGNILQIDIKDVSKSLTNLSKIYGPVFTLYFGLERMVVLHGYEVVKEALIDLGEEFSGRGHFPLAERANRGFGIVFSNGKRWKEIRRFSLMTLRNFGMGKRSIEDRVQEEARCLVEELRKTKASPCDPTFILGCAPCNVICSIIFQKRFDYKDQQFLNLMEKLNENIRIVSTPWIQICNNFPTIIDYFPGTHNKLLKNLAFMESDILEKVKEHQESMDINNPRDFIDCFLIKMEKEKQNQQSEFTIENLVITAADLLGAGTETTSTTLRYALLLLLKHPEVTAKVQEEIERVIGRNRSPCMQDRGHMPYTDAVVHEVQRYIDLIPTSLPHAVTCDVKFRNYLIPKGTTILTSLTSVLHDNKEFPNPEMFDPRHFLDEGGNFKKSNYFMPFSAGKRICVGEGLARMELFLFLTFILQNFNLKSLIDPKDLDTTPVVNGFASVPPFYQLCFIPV

FAD-linked sulfhydryl oxidase ALR, sequence (P55789 whole entry): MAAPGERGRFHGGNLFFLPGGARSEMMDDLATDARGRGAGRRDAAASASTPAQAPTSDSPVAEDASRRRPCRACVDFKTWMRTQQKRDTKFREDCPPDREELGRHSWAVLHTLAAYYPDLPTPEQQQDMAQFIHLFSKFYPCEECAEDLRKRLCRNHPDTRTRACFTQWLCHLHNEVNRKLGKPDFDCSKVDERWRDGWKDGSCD
Paired box protein Pax-8, sequence (Q06710 whole entry): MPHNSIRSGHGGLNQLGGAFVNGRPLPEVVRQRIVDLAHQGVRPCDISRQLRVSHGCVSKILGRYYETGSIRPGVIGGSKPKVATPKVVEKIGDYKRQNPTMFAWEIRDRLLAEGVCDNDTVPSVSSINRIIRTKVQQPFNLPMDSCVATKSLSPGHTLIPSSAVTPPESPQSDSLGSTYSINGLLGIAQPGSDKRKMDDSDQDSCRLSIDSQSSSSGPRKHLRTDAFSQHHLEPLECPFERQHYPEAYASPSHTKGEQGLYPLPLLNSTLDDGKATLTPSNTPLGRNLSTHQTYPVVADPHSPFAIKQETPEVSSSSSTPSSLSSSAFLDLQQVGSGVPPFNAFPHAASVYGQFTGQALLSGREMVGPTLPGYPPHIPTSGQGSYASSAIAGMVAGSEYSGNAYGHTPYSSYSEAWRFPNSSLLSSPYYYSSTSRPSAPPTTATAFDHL
Cytochrome P450 2D6, sequence (P10635 whole entry): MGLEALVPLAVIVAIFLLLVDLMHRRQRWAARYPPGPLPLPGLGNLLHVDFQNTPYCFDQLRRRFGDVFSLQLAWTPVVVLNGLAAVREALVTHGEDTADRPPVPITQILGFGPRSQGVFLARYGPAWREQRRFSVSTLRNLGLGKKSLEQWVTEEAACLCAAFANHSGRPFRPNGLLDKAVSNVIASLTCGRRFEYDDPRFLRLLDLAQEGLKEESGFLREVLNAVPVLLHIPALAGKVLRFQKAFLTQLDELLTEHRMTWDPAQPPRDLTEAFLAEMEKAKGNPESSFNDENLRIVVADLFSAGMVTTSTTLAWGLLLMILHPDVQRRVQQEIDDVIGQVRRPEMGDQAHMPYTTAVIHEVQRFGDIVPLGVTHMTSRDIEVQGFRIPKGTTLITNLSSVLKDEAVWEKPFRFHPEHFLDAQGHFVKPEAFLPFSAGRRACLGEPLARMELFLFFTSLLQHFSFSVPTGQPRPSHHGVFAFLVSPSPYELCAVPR

Cc1cc(C(=O)C(=O)O)c(C)n1-c1ccc(Cl)c(Cl)c1
AC50 [1]: 1.39 µM (active)

N/C(=C\C(=O)c1cc(Cl)ccc1O)C(Cl)(Cl)Cl
EC50 [2]: 5.12 µM (active)
EC50 (BJ [3]): 7.09 µM (active)
EC50 (BJ [4]): 3.92 µM (active)
EC50 (BJ [5]): 5.09 µM (active)

Cc1sc2c(c1C)CN(CCN1CCOCC1)CN2C(=O)c1ccccc1
EC50 [6]: 19.9 µM (active)
EC50 [7]: 13.7 µM (active)
EC50 (H4): > 120 µM (not active)

Cc1cccc(C(=O)NNC(=O)c2ccc(Cl)cc2)c1O
EC50 [6]: 23.3 µM (active)
EC50 [7]: 7.11 µM (active)
EC50 (H4): 98.9 µM (active)

C[C@]12CC[C@H]3[C@@H](CC[C@H]4C[C@@H](O)CC[C@@]43C)[C@@H]1C[C@@H](O)C2
IC50 (H9c2): > 79 µM (inactive)

C/C(=N\OC(=O)NC1CCCCC1)c1sc(-c2ccccc2)nc1C
EC50 [6]: 22 µM (active)
EC50 [7]: 0.673 µM (active)
EC50 (H4): > 120 µM (inconclusive)
AC50 (Cytochrome P450 2D6): 28.2 µM (inconclusive)
EC50 [8]: > 60 µM (not active)
EC50 [9]: 2.05 µM (active)

CCO/C(O)=C1\C(C)=NC(C)=C(C(=O)OCCNC(=O)c2cccnc2)C1c1cccc([N+](=O)[O-])c1 (stereo not drawn)
IC50 (H9c2): > 79 µM (inactive)

O=C(NCc1csc(-c2ccccc2)n1)c1cc(F)cc2c1OCOC2
EC50 [6]: 14.9 µM (active)
EC50 [7]: 13.1 µM (active)
EC50 (H4): 15.5 µM (active)

COc1ccc(C(C(=O)NC2CCCCC2)N(Cc2cccs2)C(=O)Cc2c[nH]c3ccccc23)cc1OC (stereo not drawn)
EC50 [10]: > 53 µM (inactive)
IC50 [11]: > 47.1 µM (inactive)
IC50 (H9c2): > 79 µM (inactive)

O=C(NCCN1CCOCC1)c1cnn2c(-c3ccccc3)cc(-c3ccccc3)nc12
IC50 (H9c2): > 79 µM (inactive)

Cc1ccc(C(=O)c2cc([N+](=O)[O-])ccc2N2CC(C)OC(C)C2)cc1 (stereo not drawn)
EC50 [2]: 12.5 µM (active)
EC50 (BJ [3]): 16.7 µM (active)
EC50 (BJ [4]): 13.8 µM (active)
EC50 (BJ [5]): 31.6 µM (active)

Cc1nc2ccccc2c(=O)n1CCc1ccc(O)cc1
AC50 [1]: 3.66 µM (active)

O=C(COc1ccccc1-c1ccccc1)N/N=C/c1ccc2ccccc2c1
AC50 (INS1): 9.14 µM (active)
EC50 (Streptococcus): 2.41 µM (active)
EC50 [2]: 0.475 µM (active)
AC50 (Paired box protein Pax-8): 2.1 µM (active)
EC50 (BJ [3]): 0.472 µM (active)
EC50 [12]: 4.87 µM (active)
AC50 [13]: 0.258 µM (active)
EC50 (BJ [4]): 0.364 µM (active)
EC50 (BJ [5]): 0.568 µM (active)

O=C(c1cccc(F)c1)N1CCN=C1SCc1cccnc1
AC50 [1]: 0.123 µM (active)

COCCn1c(-c2ccccc2)cs/c1=N\c1cccnc1
EC50 [10]: > 53 µM (inactive)
IC50 [11]: 22.3 µM (active)

CCCCNC(=O)c1cn(-c2ccc(OCC)cc2)c(=O)c2cc(OC)c(OC)cc12
IC50 (H9c2): 15.3 µM (active)

CN(CC(=O)Nc1cccc(F)c1)C(=O)Cc1nnc(O)c2ccccc12
IC50 (H9c2): 25.6 µM (active)

CC(=O)Nc1ccc(NC2CCCCC2NS(=O)(=O)c2ccccc2)cc1 (stereo not drawn)
AC50 [1]: 0.736 µM (active)

O=C(COC(=O)Cn1[nH]c(=O)c2ccccc2c1=O)Nc1ncc(Cl)cc1Cl
IC50 (H9c2): > 79 µM (inactive)

O=C(CC1Sc2ccccc2NC1=O)c1ccc(Br)cc1 (stereo not drawn)
EC50 [6]: 5.6 µM (active)
EC50 [7]: 7.15 µM (active)
EC50 (H4): 36.6 µM (active)

Cc1cccc(NC(=O)c2[nH]cnc2C(=O)NCCCCCCNC(=O)c2nc[nH]c2C(=O)Nc2cccc(C)c2)c1
IC50 (H9c2): 14.4 µM (active)

O=C(COc1ccc(Cl)cc1Cl)Nc1ccccc1NS(=O)(=O)c1cccs1
EC50 [10]: 33.1 µM (active)
IC50 [11]: > 47.1 µM (inactive)

Cc1c(C#N)c(N)nc2c3c(sc12)NC(=O)CC3c1ccccc1 (stereo not drawn)
IC50 (H9c2): 32.6 µM (inactive)

COc1ccc2nc(O)c(CN(CC3CCCO3)S(=O)(=O)c3ccccc3F)cc2c1 (stereo not drawn)
IC50 (H9c2): 15.5 µM (active)

COc1ccc(N/C=C(\C#N)c2nc3ccccc3n2C)c(OC)c1
IC50 (H9c2): > 79 µM (inactive)

COc1ccc(S(=O)(=O)Cc2ccc(C(=O)N3CCN(c4cccc(C)c4C)CC3)o2)cc1
EC50 [2]: 20.4 µM (active)
EC50 (BJ [3]): > 75 µM (inconclusive)
EC50 (BJ [4]): > 150 µM (not active)
EC50 (BJ [5]): > 150 µM (not active)

CCn1c(SCC(=O)N2CCCCC2)nc2c(c1=O)SCC2
EC50 [10]: > 53 µM (inactive)
IC50 [11]: > 47.1 µM (inactive)

Cc1nn(C)cc1C(C(=O)NC1CCCCC1)N(C(=O)Cc1cccs1)c1ccc(Cl)cc1 (stereo not drawn)
EC50 [10]: 12 µM (active)
IC50 (H9c2): 15.2 µM (active)

CC1Oc2ccccc2C=C1/C=C1/SC(N2CCOCC2)=NC1=O (stereo not drawn)
EC50 [6]: 7.43 µM (active)
EC50 [7]: 37.3 µM (active)
EC50 (H4): 10.9 µM (active)

Cc1cc(NC(=O)CN2C(=O)NC(CC(C)C)C2=O)no1 (stereo not drawn)
EC50 [10]: > 53 µM (inactive)
IC50 [11]: > 47.1 µM (inactive)

Cc1ccc(C(=O)Oc2ccc(Cl)c3cccnc23)cc1[N+](=O)[O-]
IC50 (H9c2): > 79 µM (inactive)

Cc1cc(NC(=O)c2cccc(Br)c2)[nH]n1
EC50 [6]: 2.47 µM (active)
EC50 [7]: 54.5 µM (active)

Cc1ccccc1NCCC(=O)Nc1ccc(Cl)cc1
AC50 [1]: 4.88 µM (active)

c1ccc(CCc2nc(-c3ccccc3)no2)cc1
EC50 [6]: 56.8 µM (active)
EC50 [7]: 51.8 µM (active)
EC50 (H4): 6.54 µM (active)
AC50 (Cytochrome P450 2C19): 0.501 µM (inconclusive)

Cc1ccc(NCC(=O)N=Nc2c(O)[nH]c3ccc([N+](=O)[O-])cc23)cc1
EC50 [6]: 24.6 µM (active)
EC50 [7]: 0.255 µM (active)
EC50 (H4): 0.303 µM (active)

CCN(C[C@H]1N[C@@](Cc2ccccc2)(C(=O)OC)[C@H]2C(=O)N(C)C(=O)[C@@H]12)S(=O)(=O)c1ccc(OC)cc1
IC50 (H9c2): 7.53 µM (active)

Nc1ccccc1Sc1c[nH]c2ccccc12
AC50 [1]: 24.5 µM (active)

Cc1ccc2c(c1)C(N1CCCC1=O)CC(c1ccco1)N2 (stereo not drawn)
EC50 [6]: 14.6 µM (active)
EC50 [7]: 16.1 µM (active)
EC50 (H4): > 120 µM (not active)

CCOC(=O)C1(Cc2cccc(OC)c2)CCCN(C(=O)CCc2cccnc2)C1 (stereo not drawn)
EC50 [6]: 15.2 µM (active)
EC50 [7]: 12.6 µM (active)
EC50 (H4): > 120 µM (not active)
